Test results taken from patent publication US7592422B2, “Modified plasminogen activator inhibitor type-1 and methods based thereon” (Medical College of Ohio, priority 2002, dated 2009).

Experiments:
[1] = system: chicken chorioallantoic membrane (angiogenesis in chick embryos); assay: Chicken chorioallantoic membrane (CAM) assay; format: in vivo
Procedure: The one-day-old fertilized eggs were incubated for three days in the water-jacketed incubator (38° C., 85% humidity). The eggs were cracked and the chick embryos with intact yolks were placed in plastic Petri dishes containing 10 ml of RPMI-1640 medium (38° C., 85% humidity, 3% of CO2). After 3 days of incubation, the methylcellulose disk containing inhibitor was implanted on the CAMs of the individual embryos. After 48 h of incubation, CAM of individual embryo was analyzed for formation of avascular zones and photographed. The angiostatic effect was determined as a percentage of the area of blood vessels under the methylcellulose disks (3-5 eggs for each concentration) in relation to the non-treated areas. The area below the dialysis bag and two non-treated areas were scanned and saved on computer disk as tif files. Color images were converted into black/white images, contrast was enhanced, and images were saved as 16-bitmap files using Paint Software (Microsoft Corporation, Redmond, Va.). Black/white images were converted into false color (rainbow striped) images using Transform2 Software (Fortner, Sterling, Va.). […] This method provides some quantification of angiogenesis.

urokinase HMWt, Choay = urokinase HMWt, Choay (Homo sapiens, UniProt P00749); conditions: 0.05 M Tris pH 8.8, 37° C., substrate 0.5 mM, urokinase at 1000 u/mL; cited from earlier work
urokinase LMWt, Abbott = urokinase LMWt, Abbott (Homo sapiens, UniProt P00749); conditions: 0.05 M Tris pH 8.8, 37° C., substrate 0.5 mM, urokinase at 1000 u/mL; cited from earlier work

**Q.** With VEGF as the compound, how does the “vessel formation, positive control disk” value ([1]; methylcellulose disk containing VEGF) read?
**A.** dense areas of newly formed vessels were developed

**Q.** With `O=C(O[C@@H]1Cc2c(O)cc(O)cc2O[C@@H]1c1cc(O)c(O)c(O)c1)c1cc(O)c(O)c(O)c1` [EGCG, epigallocatechin gallate] as the compound, how does the “colour change of methylcellulose disks (sign of probable oxidation)” value ([1]; in methylcellulose disk on CAM) read?
**A.** the methylcellulose disks quickly change color

**Q.** Which results are given for “Cbo-L-(γ)-Glu (α-t-BuO)-Gly-Arg-pNA.2AcOH [No. 244]”?
**A.** Vmax (urokinase HMWt, Choay): 0.54 μM mm-^1; κm (urokinase HMWt, Choay): 30 µM; Vmax (urokinase LMWt, Abbott): 0.53 μM mm-^1; κm (urokinase LMWt, Abbott): 80 µM

**Q.** With `N=C(N)NC(=O)c1nc(Cl)c(N)nc1N` [amiloride] as the compound, how does the “large avascular zones outside of areas covered by methylcellulose disk containing the inhibitor” value ([1]; 48 h) read?
**A.** The effect was observed
